# Paper PMC9612005 (Pharmaceutics, 2022)
# Test system: rod photoreceptors
# Test: µERG a-wave of mouse retinal explants on MEA, scotopic (dark-adapted) stimulation
# Type: cell-based
# Conditions: for photoreceptor (rod) responses under low scotopic light: <−2.0 log; for photoreceptor (rod) responses under low scotopic light / reduction of a-wave amplitudes / decrease in the a-wave slope vs control: inhibitor 50 µM, activator 0.1 µM; for reduction of a-wave amplitudes: higher light intensities (≥−2.0 log); for a-wave amplitude / a-wave slope: inh 50 µM, act 0.1 µM, mean ±std
# Method: Further animal experiments were performed using adult postnatal-day (P) 25–30 C57BL/6J mice (n = 12). Animals were housed under standard 12 h white cyclic lighting, had free access to food, water, and playgrounds, and were used irrespective of gender. Animal protocols compliant with §4 of the German law on animal protection were reviewed and approved by the Tübingen University committee on animal protection, and registered on 30 March 2022 under the No. AK05/22M. Moreover, experiments were performed in accordance with the ARVO statement for the use of animals in ophthalmic and visual research. All efforts were made to minimize the number of mice used and their suffering.
# The mice were kept overnight in a ventilated light-tight box for dark-adaption. Subsequent procedures were performed under dim red light. The eyes of the mice were enucleated; then, the retina was isolated in extracellular solution containing (in mM): 125 NaCl, 26 NaHCO3, 2.5 KCl, 2 CaCl2, 1 MgCl2, 1.25 NaH2PO4, and 20 glucose, and was maintained at pH 7.4 using carboxygen perfusion (95/5% O2/CO2). All chemicals were obtained from Merck KGaA (Darmstadt, Germany). For MEA recording, the retinas were placed in the MEA-recording chamber (GC-side down). During the recordings, the tissue was perfused with carboxygenated medium at 32 °C. The chamber perfusion rate was adjusted to 2 mL/min.
# Electrophysiological recordings were performed to assess the light dependent retinal responses (photoreceptors µERG and RGCs spikes) by means of a multi-electrode array system (MEA, USB-MEA60-Up-BC-System-E from Multi Channel Systems, Reutlingen, Germany) equipped with MEA 200/30iR-ITO-pr. The recordings were performed at a 25,000 Hz sampling-rate collecting unfiltered raw data. The trigger-synchronized operation of the light stimulation (LEDD1B T-Cube, Thorlabs) and MEA recording were controlled by the recording protocol set within the MCRack software (v 4.6.2, Multi Channel Systems, Reutlingen, Germany) and the digital I/O box (MCS). The light stimulation (white light LED, 2350 mW, MCWHD3, Thorlabs, Newton, NJ, USA) was applied from beneath the transparent glass MEA, guided by optic fiber and optics. A spectrometer USB4000-UV-VIS-ES (Ocean Optics, Orlando, FL, USA) was employed to calibrate the intensity of the applied light-stimulation protocol. To discriminate the rod and cone photoreceptor responses, a light-stimulation protocol for ex vivo MEA recordings was established following the standard in-vivo ERG protocol. For scotopic recordings (rod responses), the animals were dark-adapted (12 h), while for the photopic recordings (cone responses), the retinal explants were light-adapted on the MEA (5 min at intensity of 4.20 × 10^13 photons/cm^2/s), subsequent to scotopic stimulation. The parameters of the light stimuli were set as: light flash 250 ms long (3 repetition per light intensity, 20 s interval). Scotopic: 10 stimuli in 0.5 log steps from −4.5 to 0.0 (1.33 × 10^9–4.20 × 10^13 photons/cm^2/s). Photopic (background light: 4.20 × 10^13 photons/cm^2/s): four stimuli in 0.5 log steps from +0.5 to +2.0 (1.33 × 10^14–4.20 × 10^15 photons/cm^2/s).
# MEA-recorded raw data files were filtered employing a Butterworth 2nd order filter (MC-Rack, Multi-channel systems) to extract the µERG (field potentials: bandpass 0.01–100 Hz) and spikes (high pass 200 Hz). The filtered data were converted to *.hdf files by MC DataManager (v1.6.1.0, Multi Channel Systems, Reutlingen, Germany) for further data processing in MATLAB [39]. Shown traces data are the average of 30 MEA recording electrodes, per condition. n = 5 retinae were recorded per condition. Statistical significance was estimated by one-way ANOVA followed by the Dunnett´s test for multiple comparisons. […]
# [1] = scotopic, light intensity 0.0 log
# [2] = scotopic, light intensity -0.5 log
# [3] = scotopic, light intensity -1.0 log
# [4] = scotopic, light intensity -1.5 log
# [5] = scotopic, light intensity -2.0 log
# [6] = scotopic, light intensity -2.5 log
# [7] = scotopic, light intensity -3.0 log
# [8] = scotopic, light intensity -3.5 log
# [9] = scotopic, light intensity -4.0 log
# [10] = scotopic, light intensity -4.5 log
Structure (SMILES),photoreceptor (rod) responses under low scotopic light,reduction of a-wave amplitudes (scotopic),a-wave amplitude [1] [µV],a-wave slope [1] [µV / 20 ms],a-wave amplitude [2] [µV],a-wave slope [2] [µV / 20 ms],a-wave amplitude [3] [µV],a-wave slope [3] [µV / 20 ms],a-wave amplitude [4] [µV],a-wave slope [4] [µV / 20 ms],a-wave amplitude [5] [µV],a-wave slope [5] [µV / 20 ms],a-wave amplitude [6] [µV],a-wave slope [6] [µV / 20 ms],a-wave amplitude [7] [µV],a-wave slope [7] [µV / 20 ms],a-wave amplitude [8] [µV],a-wave slope [8] [µV / 20 ms],a-wave amplitude [9] [µV],a-wave slope [9] [µV / 20 ms],also measured
Nc1nc2c(nc(Sc3ccc(Cl)cc3)n2[C@@H]2O[C@@H]3COP(=O)(O)O[C@H]3[C@H]2O)c(=O)[nH]1 [8-pCPT-cGMP],rod-responses were essentially absent,60–80%,-27.81± 6.62,-0.64± 0.21,-24.30± 7.17,-0.39± 0.16,-18.28± 4.38,-0.31± 0.09,-14.14± 3.10,-0.19± 0.17,-11.59± 2.75,-0.12± 0.22,-3.02± 0.74,-0.07± 0.01,0.04± 0.05,0.09± 0.15,0.00± 0.00,-0.04± 0.08,0.00± 0.00,0.02± 0.01,a-wave amplitude [10]: 0.00± 0.00 µV; a-wave slope [10]: 0.11± 0.10 µV / 20 ms; decrease in the a-wave slope vs control (scotopic): ~ 85%
O=c1c2nc(Br)n([C@@H]3O[C@@H]4CO[P@@](=O)(S)O[C@H]4[C@H]3O)c2nc2[nH]c(-c3ccccc3)cn12 [Rp-8-Br-PET-cGMPS],essentially abolished photoreceptor responses,~ 96%,-7.32± 1.37,-0.15± 0.11,-4.49± 1.49,-0.07± 0.04,-3.62± 1.17,-0.07± 0.04,-2.22± 1.40,-0.03± 0.03,-1.85± 0.71,-0.04± 0.03,0.00± 0.00,-0.05± 0.03,0.00± 0.00,-0.04± 0.02,0.00± 0.00,0.02± 0.02,0.00± 0.00,-0.02± 0.00,light intensity at which rod a-wave response was detectable (scotopic): −2.0 log units; a-wave amplitude [10]: 0.00± 0.00 µV; a-wave slope [10]: -0.02± 0.03 µV / 20 ms; decrease in the a-wave slope vs control (scotopic): up to 90%
